# What was measured:
# Type in all cases: cell-based
# [1] = tested on: mouse lenses; assay: Increase in elasticity: lens organ culture, change in lens diameter under coverslip (ΔD); conditions: mouse lenses incubated 8-15 hours, 0.5 μM to 500 μM tested, p<0.0001
# Excerpt: FIG. 4 depicts a scatter plot of the change in ΔD (micrometers) in the absence (control) and presence of lipoic acid in lens organ culture experiments. […] Statistical values are highly significant at p<0.0001 by unpaired t-test and by Kruskal Wallis test, which compared medians of each data set. The relative change in Young's modulus (E) can be calculated as the cubic value derived from the ΔD of the control divided by the ΔD of the experimental or E fractional change=(ΔD con/ΔDexp)^3.
# Increase in Elasticity: Pairs of mouse lenses were incubated in medium 200 supplemented with an antibiotic, an antimycotic, in the presence or absence of lipoic acid (concentrations ranging from 0.5 μM to 500 μM) for 8-15 hours. Each lens was removed from medium, weighed, and photographed on a micrometer scale. A coverslip of known weight (0.17899±0.00200 g) was placed on the lens, and the lens was photographed again on the micrometer scale. The diameter of each lens with and without the coverslip was determined from the photographs. The change in lens diameter produced by the force (coverslip) was computed ΔD=(Dwithcoverslip−Dwithoutcoverslip).
# [2] = tested on: protein disulfides in the mouse lenses; assay: Decrease in disulfide bonds: protein SH/SS in lens homogenates by fluorescent alkylation; conditions: FIG. 5, p≦0.05 vs control
# Protocol: FIG. 5 depicts a scattergram of the percent of the total protein SH groups in disulfide bonds. Free SH groups were alkylated with 4-acetamido-4′-maleimidylstilbene-2,2′-sulfonic acid (c, 1 μM, 5 μM, 9.6 μM, 50 μM, 96 μM) or 7-diethylamino-3-(4′maleimidylphenyl)-4-methyl coumarin (500 μM, and 500 μM c). Following removal of the first alkylating agent, the S—S bonds were reduced and alkylated with fluorescein-5-maleimide. Absorption spectra were used to calculated total protein (A280 nm), free protein SH (A322 or A384), and protein SS (A490) using the appropriate extinction coefficients. The symbol ‡ indicates statistically significant difference of mean with mean of control (c, p≦0.05).
# Mouse lenses were homogenized in a denaturing buffer containing a fluorescent alkylating agent to modify the free SH groups. After removing the alkylating agent homogenates were reduced and alkylated with a different fluorescent alkylating agent. Absorption spectra of the modified proteins were used to calculate free protein SH and protein SS groups.
# [3] = tested on: human umbilical vein endothelial cells (HUVEC, first passage); assay: In vitro toxicology: cell viability, MultiTox-Fluor or Live/Dead assay; conditions: doses ranging from 0.1 μM to 100 μM
# Protocol: Cell viability was determined using human umbilical vein endothelial cells (HUVEC, first passage). Cells were treated with the active agent in doses ranging from 0.1 μM to 100 μM. The number of live and dead cells was determined using the MultiTox-Fluor assay (Promega) or Live/Deadly® assay (Invitrogen). Logistic plots were used to determine the compound's LD50 value. Lipoic acid was not cytotoxic in the concentration range.
compound,measurement,setting,value
"O=C(O)CCCCC1CCSS1 (stereo not drawn) [lipoic acid, 5-(1,2-dithiolan-3-yl)pentanoic acid]",concentrations causing a statistically significant increase in ΔD,[1],≥ 9.6 µM
same,concentrations causing a statistically significant decrease in protein disulfides,[2],≥ 9.6 µM
same,cytotoxicity (live and dead cells),[3],not cytotoxic
